Reference: patent publication US20250275951A1, “DRUGS TARGETING INFLAMMATION FOR THE TREATMENT OF OSTEOARTHRITIS AND OTHER INFLAMMATORY DISEASES” (The Board of Trustees of the Leland Stanford Junior …, priority 2020, published 2025)

Assays:
DMM mouse model for OA = experiment: Cartilage degeneration scoring of safranin-O stained joint sections in DMM mouse model for OA; assay type: in vivo
Experimental: Histologic outcomes: 20 wks after DMM, mice are sacrificed, and OA assessed histologically by a blinded examiner scoring cartilage degeneration through Safranin-O stained sections, and scoring synovitis and osteophytes through H&E stained sections.
Treatment with pharmacologic agents. Beginning 24 hrs after DMM, mice (n=10 per experimental arm) are treated by injection or oral gavage for 12 wks with either vehicle, or one of the agents as detailed in Table 1.
Histologic analysis. Histologic analysis of mouse stifle joints occurs 20-wks after surgery. Cartilage degeneration is assessed through scoring of Safranin-O stained sections and synovitis and osteophyte formation assessed through scoring of H&E stained sections. Significance was assessed by unpaired 2-tailed Mann-Whitney U test, with *P<0.05, **P<0.01, ***P<0.001.
After 12 weeks of treatment, mice were sacrificed, and the stifle joints harvested for histologic analysis, and safranin-O stained joint tissue sections were scored by a blinded examiner for the degree of cartilage degeneration. […] Significance was assessed by unpaired 2-tailed Mann-Whitney U test, with *P<0.05, **P<0.01, ***P<0.001, N.S. non-significant.
After 12 weeks of treatment, mice were sacrificed, and the stifle joints harvested for histologic analysis, and safranin-O stained joint tissue sections were scored by a blinded examiner for the degree of cartilage degeneration. […] Significance was assessed by unpaired 2-tailed Mann-WhitneyU test, with *P<0.05, **P<0.01, ***P<0.001.
Mice were then sacrificed, and the stifle joints harvested for histologic analysis. (A) Safranin-O stained joint tissue sections were scored by a blinded examiner for the degree of cartilage degeneration. (B) Representative safranin-O stained sections from each group are presented. […] Significance was assessed by unpaired 2-tailed Mann-Whitney U test, with *P<0.05, **P<0.01, ***P<0.001.

[1] = system: human OA synovial tissue organoid; experiment: Human OA synovial tissue organoid stimulation assay (qPCR); assay type: cell-based; details: rupatadine 1 μM, fenofibrate 1 μM or both; 24 hr with human OA synovial fluid; vs vehicle
Experimental: Human OA synovium was obtained at the time of arthroplasty and cultured overnight in tissue culture medium with human OA synovial fluid.
The arthroplasty synovium was then washed with media, cut into approximately 2 mm pieces, and individual organoid pieces further stimulated for 24 hr with human OA synovial fluid in the presence of the test small molecule compounds and combinations including: vehicle control; rupatadine 1 μM; fenofibrate 1 μM; or rupatadine 1 μM+fenofibrate 1 μM. The organoids were then harvested, total RNA extracted, reverse transcription performed, followed by qPCR to quantitate levels of RNA encoding the inflammatory lipid PAF biosynthesis enzyme (Ipcat2) gene expression as well as PAF receptor (ptafr) gene expression.

[2] = in vivo; cited from earlier work

Structure (SMILES): CC(C)c1c(C(=O)Nc2ccccc2)c(-c2ccccc2)c(-c2ccc(F)cc2)n1CC[C@@H](O)C[C@@H](O)CC(=O)O [Atorvastatin]
- prevention of OA (quantification of cartilage degeneration 20 wks post-DMM) (DMM mouse model for OA; C57BL/6J wild-type mice, atorvastatin 0.5 mg/kg for 12 wks following DMM vs vehicle, p=0.0513): does not prevent OA
- development / severity of OA following DMM (DMM mouse model for OA; mice, dose not given at place): failure of atorvastatin to prevent OA

Structure (SMILES): Cc1cncc(CN2CCC(=C3c4ccc(Cl)cc4CCc4cccnc43)CC2)c1 [Rupatadine]
- PAF receptor (ptafr) gene expression [1]: decreased
- inflammatory lipid PAF biosynthesis enzyme (Ipcat2) gene expression [1]: decreased
- severity / development of OA (cartilage degeneration scores) (DMM mouse model for OA; C57Bl/6 mice, oral gavage from 1 week after DMM for 3 months, rupatadine 20 μg, fenofibrate 40 μg, or both): decreased the severity of OA
- severity of OA-related cartilage degeneration following DMM (DMM mouse model for OA; WT mice, vs vehicle (combination also vs either drug alone), Example 1, dose not given at place): significantly less severe OA-related cartilage degeneration

Structure (SMILES): O=C1[C@H](CC[C@H](O)c2ccc(F)cc2)[C@@H](c2ccc(O)cc2)N1c1ccc(F)cc1 [Ezetimibe]
- Bioavailability [2]: variable

Structure (SMILES): CCc1ccc(CCOc2ccc(CC3SC(=O)NC3=O)cc2)nc1 (stereo not shown) [Pioglitazone]
- Bioavailability [2]: 83%

Structure (SMILES): Cc1ccc(C)c(OCCCC(C)(C)C(=O)O)c1 [Gemfibrozil]
- Bioavailability [2]: 100%

Structure (SMILES): CC(C)(Oc1ccc(CCNC(=O)c2ccc(Cl)cc2)cc1)C(=O)O [Bezafibrate]
- Bioavailability [2]: 100%
